Read-outs that look alike come from different tables or passages of the source.
Columns and labels:
[1] = tested on: barnacle (Balanus amphitrite) cyprid larvae; assay: Barnacle cyprid larval 24 hour settlement inhibition assay; assay type: in vivo; conditions: for anti-settlement activity (in words): barnacle larval settlement; for IC50: cyprid larvae, 24 hr exposure, probit analysis, interval in parentheses; for Inhibition Pot/Paralytic Pot: ratio of relative settlement inhibition potency to relative crayfish paralytic potency; for Barnacle Larvae Settlement Rel. Pot: relative to 2,3′-BP = 100; for Barnacle Larvae Settlement % Inhib: single concentration, three separate experiments, spread in parentheses
Source text: (§1) While the cypris larval stage was used in settlement tests, the second naupliar larval stage was used in toxicity tests. Great care was taken to ensure that the free bases completely dissolved in aged sea water solutions previously filtered to remove particles >than 100 kDa. This was accomplished by diluting (by immediate and thorough vortexing) a 3×10^−2 Molar solution of the free base in methanol at least 1,000-fold into the filtered sea water. Diluted aqueous solutions of the compounds were not refrigerated and were used within an hour of preparation.

[2] = tested on: crayfish Procambarus clarkii; conditions: cited from earlier work; for Crayfish Paralysis PD50: Table 2 footnote 1: published previously (Kem, Soti 2001)
[3] = tested on: crayfish Procambarus clarkii; conditions: for crayfish paralytic activity (in words): crayfish paralysis assay; for Crayfish Acute Paralytic Dose PD50: Table 1, no footnote, P. clarkii, injected into haemocoele, paralysis at 15 min; for fold less toxic/paralytic than 2,3′-BP in crayfish: injected into crayfish, compared with 2,3′-BP; for Crayfish Paralysis PD50: Table 2, no footnote, paralysis 15 min after injection; for Crayfish Paralysis Rel. Pot: relative to 2,3′-BP = 100
Experimental: Each alkaloid, dissolved in 0.9% sodium chloride containing 10 mM Tris buffer (pH 7.4), was injected into the haemocoele which surrounds the heart. Dose per unit weight was kept constant by injecting a variable volume, 0.10 ml per 10 g fresh weight. Paralysis was measured 15 minutes after injection by measuring the animal's ability, after being placed on its back, to right itself within a 2-minute period. Although the convulsive paralytic effect of the bipyridyls reached a peak about 2-minutes after injection, paralysis could be more conveniently measured 15 minutes after injection. Generally, the same number (10-20) of crayfish were injected at each dose, and the dose interval was kept constant. Before the assay, crayfish were tested to ascertain that they could right themselves within a one minute period.
Animals initially develop tremors, then flex their legs, repeatedly flip their tails, then fall on their side in a tonic convulsion within 2-5 minutes after injection. Recovery is appreciable within 15 minutes, the time selected as most convenient for evaluating groups of 5 animals rapidly injected one after another.

[4] = tested on: barnacle second naupliar larval stage; assay: Barnacle naupliar larval 24 hour toxicity (mortality) assay; assay type: in vivo, Balanus amphitrite; conditions: 24 hr mortality, interval in parentheses, read-out: Barnacle Larvae Lethal Median Conc. LC50
Source text: as §1
(§2) All six possible unsubstituted bipyridyls were also tested.

[5] = as above; assay type: in vivo, Balanus amphitrite; conditions: Balanus amphitrite, in vivo, other: larvae exposed in sea water solution of the compound; second naupliar stage, 24 hr mortality; interval in parentheses; read-out: Barnacle Larvae Lethal Median Conc. LC50
Source text: as §1, §2

[6] = Table 1 footnote 2: published previously, P. clarkii from Louisiana (Kem, Soti 2001)
[7] = Table 1 footnote 1: published previously, P. clarkii from California (Kem 1976)

Row | Compound | anti-settlement activity (in words) [1] | IC50 ([1]; Amphibalanus amphitrite) | LC50 at 24 h [5] | Inhibition Pot/Paralytic Pot [1] | Barnacle Larvae Settlement Rel. Pot [1] | Barnacle Larvae Settlement % Inhib [1] | Crayfish Paralysis Rel. Pot [3] | further results
1 | 1-methyl-2,3′-BP [1-Methyl-2,3′BP, reference compound] | low anti-settlement activity |  |  |  |  |  |  | IC50 [1]: > 100 µM; Crayfish Acute Paralytic Dose PD50 [2, 6]: >800^2 μg; crayfish paralytic activity (in words) [3]: very low paralytic activity; LC50 [4]: > 100 µM
2 | 2-(thienyl)-pyridine [reference compound] | inactivity |  |  |  |  |  |  | IC50 [1]: > 100 µM; Crayfish Acute Paralytic Dose PD50 [2, 6]: 650^2 μg; LC50 [4]: > 100 µM
3 | c1cnc2c(c1)ccc1ncccc12 [1,7-phenanthroline, reference compound] | inactive at a 10-fold higher concentration | > 50 µM | > 50 µM |  |  |  |  | Crayfish Acute Paralytic Dose PD50 [2, 6]: >30^2 μg; crayfish paralytic activity (in words) [3]: low activity
4 | c1cnc2c(c1)ccc1ccncc12 [1,9-phenanthroline] | almost as active as 2,3′-BP | 2 µM | > 50 µM |  |  |  |  | Crayfish Acute Paralytic Dose PD50 [2, 6]: 3.0^2 μg
5 | c1ccc(-c2ccccn2)nc1 [2,2′-BP, 2,2′-bipyridyl] |  | 7 µM | 4.4 µM |  |  |  |  | Crayfish Acute Paralytic Dose PD50 [3]: >100 µg; fold less toxic/paralytic than 2,3′-BP in crayfish [3]: at least 50 fold
6 | c1ccc(-c2cccnc2)nc1 [2,3′-BP, 2,3′-Bipyridyl] |  | 4.1 µM | 1.9 µM | 1.0 | 100 | 54 (11) % | 100 | Crayfish Acute Paralytic Dose PD50 [2, 7]: 0.88^1 μg; Crayfish Acute Paralytic Dose PD50 [2, 6]: 1.8^2 μg; Crayfish Paralysis PD50 [3]: 1.8 µg; pKa (physchem): 4.4
7 | c1ccc(-c2ccncc2)nc1 [2,4′-BP, 2,4′-bipyridyl] |  | > 100 µM | > 50 µM |  |  |  |  | Crayfish Acute Paralytic Dose PD50 [3]: >20 µg
8 | c1cnc(-c2cccnc2)nc1 [2-(3-pyridyl)-pyrimidine] |  | > 50 µM | > 50 µM |  |  |  |  | Crayfish Acute Paralytic Dose PD50 [2, 6]: 2.6^2 μg
9 | Cc1ncccc1-c1ccccn1 [2′-Me2,3′-BP, 2′-Me2,3′-bipyridyl] |  |  |  | <0.05 | 0 | 0 (33) % | 1 | Crayfish Paralysis PD50 [2]: 210^1 μg
10 | c1cncc(-c2cccnc2)c1 [3,3′-BP, 3,3′-bipyridyl] |  | > 100 µM | 10 µM |  |  |  |  | Crayfish Acute Paralytic Dose PD50 [3]: 17 µg
11 | c1cncc(-c2ccncc2)c1 [3,4′-BP, 3,4′-bipyidyl] |  |  |  |  |  |  |  | IC50 [1]: > 100 µM; Crayfish Acute Paralytic Dose PD50 [3]: 61 µg; LC50 [4]: > 20 µM
12 | Clc1cccnc1-c1cccnc1 [3-Chloro-2,3′-BP, reference compound] | inability of the 3-chloro-2,3′-BP to inhibit settlement at 100 μM |  |  |  |  |  |  | IC50 [1]: > 100 µM; LC50 [4]: > 50 µM
13 | Cc1cccnc1-c1cccnc1 [3-Me2,3′-BP, 3-Methyl-2,3′-bipyridyl] |  |  |  | 2.1 | 63 | 34 (13) % | 30 | Crayfish Paralysis PD50 [2]: 59^1 μg
14 | c1cc(-c2ccncc2)ccn1 [4,4′-BP, 4,4′-bipyridyl] |  | > 100 µM |  |  |  |  |  | 
15 | Cc1ccnc(-c2cccnc2)c1 [4-Me2,3′-BP, 4-Me2,3′-bipyridyl] |  |  |  | 3.1 | 154 | 83 (4) % | 50 | Crayfish Paralysis PD50 [3]: 3.6 µg
16 | Cc1ccncc1-c1ccccn1 [4′-Me2,3′-BP, 4′-Methyl-2,3′-bipyridyl] |  |  |  | 56 | 167 | 90 (10) % | 3 | Crayfish Paralysis PD50 [2]: 69^1 μg; fold less toxic/paralytic than 2,3′-BP in crayfish [3]: 33 fold; crayfish paralytic activity as % of 2,3′-BP ([3]; relative to 2,3′-BP): 3%
17 | Cc1ccc(-c2cccnc2)nc1 [5-Me2,3′-BP, 5-methyl-2,3′-bipyridyl] |  |  |  | 0.96 | 176 | 95 (5) % | 184 | Crayfish Paralysis PD50 [3]: 0.98 µg
18 | Cc1cncc(-c2ccccn2)c1 [5′-Me2,3′-BP, 5′-Methyl-2,3′-bipyridyl] |  |  |  | 1.8 | 100 | 54 (28) % | 55 | Crayfish Paralysis PD50 [3]: 3.3 µg
19 | Cc1cccc(-c2cccnc2)n1 [6-Me2,3′-BP, 6-methyl-2,3′-bipyridyl] |  |  |  | 0.27 | 30 | 16 (16) % | 112 | Crayfish Paralysis PD50 [3]: 1.6 µg
20 | Cc1ccc(-c2ccccn2)cn1 [6′-Me2,3′-BP, 6′-Methyl-2,3′-bipyridyl] |  |  |  | 3.7 | 56 | 30 (16) % | 15 | Crayfish Paralysis PD50 [3]: 12 µg
21 | c1cncc(C2=NCCCC2)c1 [Anabaseine, anabaseine] |  | 1.2 µM | 2 µM |  |  |  |  | Crayfish Acute Paralytic Dose PD50 [2, 7]: 3.6^1 μg; crayfish paralytic activity (in words) [3]: slightly less paralytic than 2,3′-BP; fold less toxic/paralytic than 2,3′-BP in crayfish [3]: approximately 4 fold
22 | c1cncc([C@@H]2CCCCN2)c1 [Anabasine] |  | 3 µM |  |  |  |  |  | Crayfish Acute Paralytic Dose PD50 [3]: 3.9 µg
23 | c1cncc(-c2ccnc(-c3cccnc3)c2)c1 [Nicotelline] | displayed an activity similar to nemertelline |  |  |  |  |  |  | 
24 | c1cncc(C2=NCCCN2)c1 [PTHP, 2-(3-pyridyl)-3,4,5,6-tetrahydropyrimidine, reference compound] | relative inactivity | > 100 µM | > 100 µM |  |  |  |  | Crayfish Acute Paralytic Dose PD50 [2, 6]: 81^2 μg; crayfish paralytic activity (in words) [3]: very low paralytic activity
25 | (S)-anabaseine | inhibited settlement |  |  |  |  |  |  | 
26 | nemertelline |  |  |  |  |  |  |  | IC50 [1]: 3.2 µM; Crayfish Acute Paralytic Dose PD50 [3]: >120 µg
